Test results: US20240270762A1, “PENICILLIN-BINDING PROTEIN INHIBITORS” (priority 2021, published 2024)
Values after ≈ are worked out from the molar mass of the structure shown.

Key:
[1] = target: T1, PBP3 from Escherichia coli (K-12) (Escherichia coli, UniProt P0AD68); experiment: Bocillin-FL fluorescence polarization competition binding, E. coli PBP3
T1 construct: made in house
In short: (§1)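 Purified PBPs pre-incubated with inhibitor (E. coli PBP3 1.5 μM, 30 min; P. aeruginosa PBP3 0.75 μM, A. baumannii PBP1a 1 μM and PBP3 0.2 μM, 15 min), then Bocillin-FL 0.1 μM (0.05 μM for PBP1a) added; FP read up to 60 min. EC50 = concentration halving bound Bocillin-FL.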

[2] = target: T2, PBP3 from Pseudomonas aeruginosa (PAO1) (Pseudomonas aeruginosa, UniProt G3XD46); experiment: Bocillin-FL fluorescence polarization competition binding, P. aeruginosa PBP3; details: Binding affinity to P. aeruginosa PBP3; fluorescence polarization competition binding assay using Bocillin-FL; read-out: P. aeruginosa PBP3 Potency
T2 construct: made in house
T2 sequence (G3XD46 whole entry): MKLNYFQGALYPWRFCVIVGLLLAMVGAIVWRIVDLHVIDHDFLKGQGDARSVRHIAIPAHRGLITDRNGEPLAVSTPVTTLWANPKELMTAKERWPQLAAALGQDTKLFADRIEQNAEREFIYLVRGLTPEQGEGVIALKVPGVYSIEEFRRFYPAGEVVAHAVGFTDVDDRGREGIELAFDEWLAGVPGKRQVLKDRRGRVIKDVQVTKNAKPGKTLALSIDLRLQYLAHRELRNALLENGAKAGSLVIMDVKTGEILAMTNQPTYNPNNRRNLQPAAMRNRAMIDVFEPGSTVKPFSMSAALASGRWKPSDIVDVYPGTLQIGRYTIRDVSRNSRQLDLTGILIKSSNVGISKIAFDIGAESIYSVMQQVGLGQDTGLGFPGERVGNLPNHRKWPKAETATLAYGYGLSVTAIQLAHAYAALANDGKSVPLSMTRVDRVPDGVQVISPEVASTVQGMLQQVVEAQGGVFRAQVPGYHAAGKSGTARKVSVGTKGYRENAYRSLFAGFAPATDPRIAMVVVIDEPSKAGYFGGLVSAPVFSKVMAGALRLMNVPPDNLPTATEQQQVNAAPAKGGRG
In short: as §1

P. aeruginosa ATCC 27853 = experiment: microbe, parasite or virus in culture; type: cell-based; details: Pseudomonas aeruginosa, ATCC27853, read-out: Minimum inhibitory concentration, P. aeruginosa ATCC 27853
P. aeruginosa CDC-0054 = experiment: microbe, parasite or virus in culture; type: cell-based; details: Pseudomonas aeruginosa, CDC0054, read-out: Minimum inhibitory concentration, P. aeruginosa CDC-0054
P. aeruginosa CDC-0090 = experiment: microbe, parasite or virus in culture; type: cell-based; details: Pseudomonas aeruginosa, CDC0090, read-out: Minimum inhibitory concentration, P. aeruginosa CDC-0090
P. aeruginosa CDC-0095 = experiment: microbe, parasite or virus in culture; type: cell-based; details: Pseudomonas aeruginosa, CDC0095, read-out: Minimum inhibitory concentration, P. aeruginosa CDC-0095
A. baumannii CDC-0033 = experiment: microbe, parasite or virus in culture; type: cell-based; details: Acinetobacter baumannii, CDC0033, read-out: MIC, A. baumannii CDC-0033
A. baumannii CDC-0083 = experiment: microbe, parasite or virus in culture; type: cell-based; details: Acinetobacter baumannii, CDC0083, read-out: MIC, A. baumannii CDC-0083
[3] = tested on: B. thailandensis ATCC 700388; experiment: microbe, parasite or virus in culture; type: cell-based; details: Burkholderia thailandensis, ATCC700388, read-out: Minimum inhibitory concentration (MIC), B. thailandensis ATCC 700388
[4] = tested on: B. humptydooensis ATCC BAA-2767; experiment: microbe, parasite or virus in culture; type: cell-based; details: Burkholderia humptydooensis, ATCCBAA2767, read-out: Minimum inhibitory concentration (MIC), B. humptydooensis ATCC BAA-2767
P. aeruginosa CDC-0110 = experiment: microbe, parasite or virus in culture; type: cell-based; details: Pseudomonas aeruginosa, CDC0110, read-out: Minimum inhibitory concentration, P. aeruginosa CDC-0110
[5] = tested on: N. gonorrhoeae ATCC 49226; experiment: Liquid broth MIC in Fastidious broth; details: Neisseria gonorrhoeae, ATCC49226, read-out: Minimum Inhibitory Concentration (MIC), N. gonorrhoeae ATCC 49226
N. gonorrhoeae WHO G = experiment: Liquid broth MIC in Fastidious broth; details: Neisseria gonorrhoeae, read-out: Minimum Inhibitory Concentration (MIC), N. gonorrhoeae WHO G
N. gonorrhoeae WHO X = experiment: Liquid broth MIC in Fastidious broth; details: Neisseria gonorrhoeae, read-out: Minimum Inhibitory Concentration (MIC), N. gonorrhoeae WHO X
N. gonorrhoeae CDC-0197 = experiment: Liquid broth MIC in Fastidious broth; details: Neisseria gonorrhoeae, CDC0197, read-out: Minimum Inhibitory Concentration (MIC), N. gonorrhoeae CDC-0197

T1 sequence (P0AD68 1-577): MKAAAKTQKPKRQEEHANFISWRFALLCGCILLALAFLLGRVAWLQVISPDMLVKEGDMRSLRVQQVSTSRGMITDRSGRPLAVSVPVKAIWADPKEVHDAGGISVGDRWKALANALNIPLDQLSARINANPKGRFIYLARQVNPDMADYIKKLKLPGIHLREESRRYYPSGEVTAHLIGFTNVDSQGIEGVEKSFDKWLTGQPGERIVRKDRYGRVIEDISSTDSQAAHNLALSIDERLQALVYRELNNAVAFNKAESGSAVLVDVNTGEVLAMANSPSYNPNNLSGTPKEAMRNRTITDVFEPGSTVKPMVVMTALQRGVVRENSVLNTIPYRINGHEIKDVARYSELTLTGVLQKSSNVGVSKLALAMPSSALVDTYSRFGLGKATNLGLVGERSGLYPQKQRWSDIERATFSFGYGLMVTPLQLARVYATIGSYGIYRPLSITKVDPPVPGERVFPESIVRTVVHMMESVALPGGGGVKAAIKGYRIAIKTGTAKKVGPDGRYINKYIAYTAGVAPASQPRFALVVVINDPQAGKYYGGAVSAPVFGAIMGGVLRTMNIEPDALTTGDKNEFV

Compound | EC50 [1] [µM] | IC50 [2] [µM] | MIC (P. aeruginosa ATCC 27853) [µg/mL] | MIC (P. aeruginosa CDC-0054) [µg/mL] | MIC (P. aeruginosa CDC-0090) [µg/mL] | MIC (P. aeruginosa CDC-0095) [µg/mL] | MIC (A. baumannii CDC-0033) [µg/mL] | MIC (A. baumannii CDC-0083) [µg/mL] | MIC [3] [µg/mL] | MIC [4] [µg/mL] | MIC (P. aeruginosa CDC-0110) [µg/mL] | MIC [5] [µg/mL] | MIC (N. gonorrhoeae WHO G) [µg/mL] | MIC (N. gonorrhoeae WHO X) [µg/mL] | MIC (N. gonorrhoeae CDC-0197) [µg/mL]
O=C(CN1CCN(C(=O)NC(C(=O)N[C@H]2Cc3ccc(F)c(C(=O)O)c3OB2O)c2cc(F)c(O)c(O)c2Cl)C(=O)C1=O)Nc1cccnc1 (stereo partly drawn) [Example 234, (3R)-3-(2-(2-chloro-5-fluoro-3,4-dihydroxyphenyl)-2-(2,3-dioxo-4-(2-oxo-2-(pyridin-3-ylamino)ethyl)piperazine-1-carboxamido)acetamido)-7-fluoro-2-hydroxy-3,4-dihydro-2H-benzo[e][1,2]oxaborinine-8-carboxylic acid] | < 10 | < 10 | 2 to 4 (≈ 2.79 to 5.58 µM) | 2 to 4 (≈ 2.79 to 5.58 µM) | 2 to 4 (≈ 2.79 to 5.58 µM) | 32 to 64 (≈ 44.6 to 89.3 µM) | 8 to 16 (≈ 11.2 to 22.3 µM) | < 1 | 8 to 16 (≈ 11.2 to 22.3 µM) | < 1 | < 1 | 4 to 8 (≈ 5.58 to 11.2 µM) | 4 to 8 (≈ 5.58 to 11.2 µM) | > 64 | 16 to 32 (≈ 22.3 to 44.6 µM)
O=C(CN1CCN(C(=O)NC(C(=O)N[C@H]2Cc3ccc(F)c(C(=O)O)c3OB2O)c2cc(F)c(O)c(O)c2Cl)C(=O)C1=O)Nc1nccs1 (stereo partly drawn) [Example 235, (3R)-3-(2-(2-chloro-5-fluoro-3,4-dihydroxyphenyl)-2-(2,3-dioxo-4-(2-oxo-2-(thiazol-2-ylamino)ethyl)piperazine-1-carboxamido)acetamido)-7-fluoro-2-hydroxy-3,4-dihydro-2H-benzo[e][1,2]oxaborinine-8-carboxylic acid] | < 10 | < 10 | 2 to 4 (≈ 2.77 to 5.53 µM) | 8 to 16 (≈ 11.1 to 22.1 µM) | 2 to 4 (≈ 2.77 to 5.53 µM) | 2 to 4 (≈ 2.77 to 5.53 µM) | 8 to 16 (≈ 11.1 to 22.1 µM) | < 1 | 8 to 16 (≈ 11.1 to 22.1 µM) | < 1 | < 1 | 16 to 32 (≈ 22.1 to 44.3 µM) | 4 to 8 (≈ 5.53 to 11.1 µM) | > 64 | 16 to 32 (≈ 22.1 to 44.3 µM)
O=C(CN1CCN(C(=O)NC(C(=O)N[C@H]2Cc3ccc(F)c(C(=O)O)c3OB2O)c2cc(F)c(O)c(O)c2Cl)C(=O)C1=O)NCc1cccc(O)c1 (stereo partly drawn) [Example 237, (3R)-3-(2-(2-chloro-5-fluoro-3,4-dihydroxyphenyl)-2-(4-(2-((3-hydroxybenzyl)amino)-2-oxoethyl)-2,3-dioxopiperazine-1-carboxamido)acetamido)-7-fluoro-2-hydroxy-3,4-dihydro-2H-benzo[e][1,2]oxaborinine-8-carboxylic acid] | < 10 | < 10 | 2 to 4 (≈ 2.68 to 5.36 µM) | 8 to 16 (≈ 10.7 to 21.5 µM) | 2 to 4 (≈ 2.68 to 5.36 µM) | 2 to 4 (≈ 2.68 to 5.36 µM) | 8 to 16 (≈ 10.7 to 21.5 µM) | > 128 | 8 to 16 (≈ 10.7 to 21.5 µM) | 2 to 4 (≈ 2.68 to 5.36 µM) | < 1 | 16 to 32 (≈ 21.5 to 42.9 µM) | 4 to 8 (≈ 5.36 to 10.7 µM) | > 64 | 16 to 32 (≈ 21.5 to 42.9 µM)
O=C(CN1CCN(C(=O)NC(C(=O)N[C@H]2Cc3ccc(F)c(C(=O)O)c3OB2O)c2cc(F)c(O)c(O)c2Cl)C(=O)C1=O)NCc1ccccc1 (stereo partly drawn) [Example 238] | < 10 | < 10 | 2 to 4 (≈ 2.74 to 5.48 µM) | 2 to 4 (≈ 2.74 to 5.48 µM) | 2 to 4 (≈ 2.74 to 5.48 µM) | 2 to 4 (≈ 2.74 to 5.48 µM) | 8 to 16 (≈ 11 to 21.9 µM) | > 128 | 8 to 16 (≈ 11 to 21.9 µM) | > 128 | < 1 | 16 to 32 (≈ 21.9 to 43.8 µM) | 4 to 8 (≈ 5.48 to 11 µM) | > 64 | 16 to 32 (≈ 21.9 to 43.8 µM)
O=C(CN1CCN(C(=O)N[C@@H](C(=O)N[C@H]2Cc3ccc(F)c(C(=O)O)c3OB2O)c2cc(F)c(O)c(O)c2Cl)C(=O)C1=O)NCc1ccncc1 [Example 239, (R)-3-((R)-2-(2-chloro-5-fluoro-3,4-dihydroxyphenyl)-2-(2,3-dioxo-4-(2-oxo-2-((pyridin-4-ylmethyl)amino)ethyl)piperazine-1-carboxamido)acetamido)-7-fluoro-2-hydroxy-3,4-dihydro-2H-benzo[e][1,2]oxaborinine-8-carboxylic acid] | < 10 | < 10 | 2 to 4 (≈ 2.74 to 5.47 µM) | 2 to 4 (≈ 2.74 to 5.47 µM) | 2 to 4 (≈ 2.74 to 5.47 µM) | 2 to 4 (≈ 2.74 to 5.47 µM) | 8 to 16 (≈ 10.9 to 21.9 µM) | < 1 | 8 to 16 (≈ 10.9 to 21.9 µM) | 32 to 64 (≈ 43.8 to 87.6 µM) | < 1 | 16 to 32 (≈ 21.9 to 43.8 µM) | 4 to 8 (≈ 5.47 to 10.9 µM) | > 64 | 16 to 32 (≈ 21.9 to 43.8 µM)
O=C(CN1CCN(C(=O)NC(C(=O)N[C@H]2Cc3ccc(F)c(C(=O)O)c3OB2O)c2cc(F)c(O)c(O)c2Cl)C(=O)C1=O)NCc1cccnc1 (stereo partly drawn) [Example 240, (3R)-3-(2-(2-chloro-5-fluoro-3,4-dihydroxyphenyl)-2-(2,3-dioxo-4-(2-oxo-2-((pyridin-3-ylmethyl)amino)ethyl)piperazine-1-carboxamido)acetamido)-7-fluoro-2-hydroxy-3,4-dihydro-2H-benzo[e][1,2]oxaborinine-8-carboxylic acid] | < 10 | < 10 | < 1 | < 1 | 2 to 4 (≈ 2.74 to 5.47 µM) | 2 to 4 (≈ 2.74 to 5.47 µM) | 2 to 4 (≈ 2.74 to 5.47 µM) | > 128 | 2 to 4 (≈ 2.74 to 5.47 µM) | 2 to 4 (≈ 2.74 to 5.47 µM) | < 1 | 16 to 32 (≈ 21.9 to 43.8 µM) | 4 to 8 (≈ 5.47 to 10.9 µM) | > 64 | 16 to 32 (≈ 21.9 to 43.8 µM)
O=C(CN1CCN(C(=O)N[C@@H](C(=O)N[C@H]2Cc3ccc(F)c(C(=O)O)c3OB2O)c2cc(F)c(O)c(O)c2Cl)C(=O)C1=O)NCc1nccs1 [Example 241, (R)-3-((R)-2-(2-chloro-5-fluoro-3,4-dihydroxyphenyl)-2-(2,3-dioxo-4-(2-oxo-2-((thiazol-2-ylmethyl)amino)ethyl)piperazine-1-carboxamido)acetamido)-7-fluoro-2-hydroxy-3,4-dihydro-2H-benzo[e][1,2]oxaborinine-8-carboxylic acid] | < 10 | < 10 | < 1 | < 1 | 2 to 4 (≈ 2.71 to 5.43 µM) | 2 to 4 (≈ 2.71 to 5.43 µM) | 8 to 16 (≈ 10.9 to 21.7 µM) | > 128 | 2 to 4 (≈ 2.71 to 5.43 µM) | 2 to 4 (≈ 2.71 to 5.43 µM) | < 1 | 4 to 8 (≈ 5.43 to 10.9 µM) | 4 to 8 (≈ 5.43 to 10.9 µM) | > 64 | 16 to 32 (≈ 21.7 to 43.4 µM)
O=C(NCCN1CCN(C(=O)NC(C(=O)N[C@H]2Cc3ccc(F)c(C(=O)O)c3OB2O)c2cc(F)c(O)c(O)c2Cl)C1=O)c1ccccc1 (stereo partly drawn) [Example 242, (3R)-3-(2-(3-(2-benzamidoethyl)-2-oxoimidazolidine-1-carboxamido)-2-(2-chloro-5-fluoro-3,4-dihydroxyphenyl)acetamido)-7-fluoro-2-hydroxy-3,4-dihydro-2H-benzo[e][1,2]oxaborinine-8-carboxylic acid] | < 10 | < 10 | 2 to 4 (≈ 2.85 to 5.7 µM) | 2 to 4 (≈ 2.85 to 5.7 µM) | < 1 | 2 to 4 (≈ 2.85 to 5.7 µM) | 2 to 4 (≈ 2.85 to 5.7 µM) | 2 to 4 (≈ 2.85 to 5.7 µM) | 2 to 4 (≈ 2.85 to 5.7 µM) | 8 to 16 (≈ 11.4 to 22.8 µM) | 2 to 4 (≈ 2.85 to 5.7 µM) | 16 to 32 (≈ 22.8 to 45.6 µM) | 16 to 32 (≈ 22.8 to 45.6 µM) | > 64 | > 64
O=C(NCCN1CCN(C(=O)NC(C(=O)N[C@H]2Cc3ccc(F)c(C(=O)O)c3OB2O)c2cc(F)c(O)c(O)c2Cl)C1=O)c1ccc(O)cc1 (stereo partly drawn) [Example 243, (3R)-3-(2-(2-chloro-5-fluoro-3,4-dihydroxyphenyl)-2-(3-(2-(4-hydroxybenzamido)ethyl)-2-oxoimidazolidine-1-carboxamido)acetamido)-7-fluoro-2-hydroxy-3,4-dihydro-2H-benzo[e][1,2]oxaborinine-8-carboxylic acid] | 10 to 50 | < 10 | < 1 | 2 to 4 (≈ 2.79 to 5.57 µM) | < 1 | 8 to 16 (≈ 11.1 to 22.3 µM) | 2 to 4 (≈ 2.79 to 5.57 µM) | < 1 | 2 to 4 (≈ 2.79 to 5.57 µM) | 2 to 4 (≈ 2.79 to 5.57 µM) | < 1 | 16 to 32 (≈ 22.3 to 44.6 µM) | 16 to 32 (≈ 22.3 to 44.6 µM) | > 64 | 16 to 32 (≈ 22.3 to 44.6 µM)
